Among the data in US20070010488A1, “Compounds for modulating cell proliferation” (priority 2005, published 2007) are IC50 values, retold here.

pIC50: −log10 of the molar value.

What all share (type): cell-based
One assay concerns K562 (CML). Briefly: Trypan Blue Dye Exclusion and Cell Counting Assay, K562. The settings on record: Homo sapiens, 72 hours. Here is the method:
(§1) Each test compound was weighed between the ranges of 0.5-2.0 mg, and then dissolved in a specified volume of DMSO to produce a solution of 10 mM. Appropriate dilutions in cell culture medium were made to produce a stock solution of 400 μM. All subsequent dilutions were also done in cell culture medium. This stock solution was then used for further dilutions to produce the initial concentration to be added to the 50 μL and 450 μL of cells in the 96-well and the 48-well microtiter plates, respectively:
(§2) The initial concentration for cells that were cultured in 50 μL 96-well plates was 40 μM. Once 50 μL of this test solution was added to the cells, this then produced a final dilution of 1:2, giving the desired concentration of 20 μM. Further 1:2 dilutions were made until the desired concentration of […] was reached.
(§3) Compound 1 was used as positive control at concentrations of 1 μM and 3 μM. Cells were incubated with the test compounds for 72 hours. C1 and OCI-AML2 and RPMI8226 cell culture media were assayed by addition of 20 μL of Alamar Blue reagent and incubated for 4 hours before reading. Cell counting was utilised for K562 and DAUDI. [drawing 13] […]
(§4) 50 μL of cell culture medium containing the test compound was added to each well twenty four hours after seeding. […] Proliferation of cells was assessed using the fluorimetric Alamar Blue (CellTiter Blue) test and cell counting.

Assay [1] deals with DAUDI (non-Hodgkin lymphoma). Briefly: Trypan Blue Dye Exclusion and Cell Counting Assay, DAUDI. The settings on record: Homo sapiens, 72 hours. Here is the method:
as §1, §2, §3, §4

For the next assay, the system named is RPMI8226 (myeloma). Nature of the assay: Alamar Blue cell viability assay, RPMI8226. The settings on record: Homo sapiens, RPMI-8226, 72 hours. The protocol: as §1, §2
Compound 1 was used as positive control at concentrations of 1 μM and 3 μM. […] C1 and OCI-AML2 and RPMI8226 cell culture media were assayed by addition of 20 μL of Alamar Blue reagent and incubated for 4 hours before reading. […]
as §4
For the Alamar Blue assay, untreated cells were used as growth controls. Data were assessed in duplicates. […]
For orientation: Alamar Blue is a resazurin reagent that responds to reducing activity.

Consider `CCN1C/C(=C\c2cc(OC)c(OC)c(OC)c2)C(=O)/C(=C/c2cc(OC)c(OC)c(OC)c2)C1` [Compound A], for which the pIC50 in the assay on K562 (CML) is 5.60; in assay [1], 6.26; with RPMI8226 (myeloma) it was 5.82.

Usually pIC50 stands for the negative decadic logarithm of the IC50, by convention in mol/L. Low values mean a large IC50, high ones a small IC50.
